# Molecular target: T1, human CB1 receptor (Homo sapiens, UniProt P21554)
# T1 construct: expressed in transfected cells; membrane-enriched fractions
# Test: competitive radioligand binding assay, displacement of [3H]CP55,940, CB1
# Settings: for inhibition at 10 µM / CB1 Inhibition (%) (10 μM): percent inhibition at 10 μM; for IC50: displacement of specific [3H]-CP55940 binding in HEK 293 cells stably transfected with human CB1 receptor
# Method: In addition, the affinity of test compounds of this invention toward CB1 and CB2 receptors was determined by competitive radioligand binding assays in vitro. This method differentiates the binding strength between compounds by their abilities in displacing a receptor-specific radioactive ligand. […] The readings of the radioactivity retained allow further analysis of receptor binding, and assist in predictions of the pharmacological activities of the test compounds.
# In the assays, CB1 receptors are from human CB1 stably expressed cell lines, and CB2 receptors are from human CB2 stably expressed cell lines. For purification of membrane-enriched fractions, cells were scraped off from the culture dishes in ice-cold buffer A (50 mM Tris, 5 mM MgCl2, 2.5 mM EDTA, pH 7.4, 10% sucrose) with 1 mM PMSF. After sonication, the membrane-enriched fractions were centrifuged for 15 minutes at 2,000×g at 4° C. The supernatant was centrifuged again for 30 minutes at 43,000×g at 4° C. The final pellet was re-suspended in buffer A and stored at −80° C. The protein concentration of the purified membrane was determined by the Bradford method as described by the manual provided by Bio-Rad Laboratories, Inc., Hercules, Calif.
# During the receptor binding experiments, 0.2˜8 μg of membrane fractions were incubated with 0.75 nM [^3H]CP55,940 and a test compound in the incubation buffer of 50 mM Tris-HCl, 5 mM MgCl2, 1 mM EDTA, 0.3% BSA, pH 7.4. The non-specific binding was determined by using 1 μM of CP55,940. The mixture was incubated for 1.5 hours at 30° C. in Multiscreen microplates (Millipore, Billerica, Mass.). At the completion of the incubation, the reaction was terminated by Manifold filtration and washed with ice-cold wash buffer (50 mM Tris, pH 7.4, 0.25% BSA) four times. The radioactivity bound to the filters was measured by Topcount (Perkin Elmer Inc.).
# T1 sequence (P21554 whole entry): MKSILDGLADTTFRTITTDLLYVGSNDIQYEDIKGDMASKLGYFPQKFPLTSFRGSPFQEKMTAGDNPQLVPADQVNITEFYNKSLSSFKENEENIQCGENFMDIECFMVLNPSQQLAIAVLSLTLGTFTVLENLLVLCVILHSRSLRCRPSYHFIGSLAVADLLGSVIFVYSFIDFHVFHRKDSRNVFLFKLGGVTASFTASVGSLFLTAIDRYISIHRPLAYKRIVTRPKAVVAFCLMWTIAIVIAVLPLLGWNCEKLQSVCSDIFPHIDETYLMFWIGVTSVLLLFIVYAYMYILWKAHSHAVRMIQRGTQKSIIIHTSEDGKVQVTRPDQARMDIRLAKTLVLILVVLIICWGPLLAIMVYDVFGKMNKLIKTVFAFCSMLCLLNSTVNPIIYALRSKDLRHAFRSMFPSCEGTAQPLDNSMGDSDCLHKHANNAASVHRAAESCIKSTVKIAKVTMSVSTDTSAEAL
Compound,inhibition at 10 µM (Table 2),inhibition at 10 µM (Table 1),other results
O=C(Cn1nc(-c2ccc(Cl)cc2)c(-c2ccc(Cl)cc2Cl)n1)NCc1ccc(F)cc1F [Compound 157],95.2%,,IC50: 217 ± 86.6 nM
O=C(Cn1nnc(-c2ccc(Cl)cc2Cl)c1-c1ccc(Cl)cc1Cl)N1CCOCC1 [Compound 64],,26%,
CCCCOC(=O)Cn1nnc(-c2ccccc2)c1-c1ccc(C#N)cc1 [Compound 31],,18.9%,
CCCCOC(=O)Cn1nnc(-c2ccc(Cl)cc2Cl)c1-c1ccc(Cl)cc1Cl [Compound 54],,71.7%,
O=C(NC12CC3CC(CC(C3)C1)C2)n1nc(-c2ccc(Cl)cc2Cl)c(-c2ccc(Cl)cc2Cl)n1 [Compound 113],78.9%,,IC50: 4500 ± 871 nM
O=C(NC12CC3CC(CC(C3)C1)C2)n1nc(-c2ccc(Cl)cc2)c(-c2ccc(Cl)cc2Cl)n1 [Compound 108],34.5%,,
CCCCOC(=O)Cn1nnc(-c2ccccc2)c1-c1ccccc1 [Compound 1],,40.8%,
C[C@H](NC(=O)Cn1nc(-c2ccc(Cl)cc2)c(-c2ccc(Cl)cc2Cl)n1)C(O)(c1ccccc1)c1ccccc1 [Compound 143],80%,,IC50: 789 ± 202 nM
CCCCOC(=O)Cn1nnc(-c2cccc(F)c2)c1-c1cccc(F)c1 [Compound 22],,27.1%,
O=C(Cn1nnc(-c2ccccc2)c1-c1ccccc1)N1CCCCC1 [Compound 3],,26.6%,
CCCCCCOC(=O)Cn1nc(-c2ccc(Cl)cc2Cl)c(-c2ccc(Cl)cc2Cl)n1 [Compound 115],72.7%,,IC50: 4460 ± 698 nM
CCCCOC(=O)Cn1cc(-c2ccccc2)nn1 [Compound 4],,9.6%,
CCCCOC(=O)Cn1nnc(-c2ccccc2)c1-c1ccc(C(F)(F)F)cc1 [Compound 40],,16.3%,
CCCCCCCOC(=O)Cn1nnc(-c2ccc(Cl)cc2Cl)c1-c1ccc(Cl)cc1Cl [Compound 59],,30.1%,
O=C(NCCc1ccccc1)n1nc(-c2ccc(Cl)cc2Cl)c(-c2ccc(Cl)cc2Cl)n1 [Compound 27],,46%,
O=C(Cn1nc(-c2ccc(Cl)cc2)c(-c2ccc(Cl)cc2Cl)n1)NCc1ccccc1Cl [Compound 159],87.3%,,IC50: 365 ± 160 nM
O=C(NC1CCCCC1)n1nc(-c2ccc(Cl)cc2)c(-c2ccc(Cl)cc2)n1 [Compound 80],29.9%,,
CCCCOC(=O)CNC(=O)n1nc(-c2ccc(Cl)cc2Cl)c(-c2ccc(Cl)cc2Cl)n1 [Compound 92],22.3%,,
CCCCCNC(=O)n1nc(-c2ccc(Cl)cc2Cl)c(-c2ccc(Cl)cc2Cl)n1 [Compound 88],7%,,
COC[C@H](NC(=O)Cn1nc(-c2ccc(Cl)cc2)c(-c2ccc(Cl)cc2Cl)n1)[C@@H](O)c1ccccc1 [Compound 140],,,IC50: 1050 ± 256 nM
CCCCCCCCN(CCCCCCCC)C(=O)Cn1nnc(-c2ccccc2)c1-c1ccccc1 [Compound 39],,4.1%,

Compound,inhibition at 10 µM (Table 2),inhibition at 10 µM (Table 1),other results
CCCCCCNC(=O)n1nc(-c2ccc(Cl)cc2Cl)c(-c2ccc(Cl)cc2Cl)n1 [Compound 75],3.3%,,
CCCCOC(=O)Cn1nnc(-c2ccc(Cl)cc2)c1-c1ccc(Cl)cc1Cl [Compound 46],,50.8%,
O=C(Cn1nnc(-c2cc(Cl)cc(Cl)c2)c1-c1cc(Cl)cc(Cl)c1)N1CCCCC1 [Compound 17],,25.9%,
CCCCCCOC(=O)Cn1nnc(-c2ccc(Cl)cc2)c1-c1ccc(Cl)cc1Cl [Compound 55],,45.7%,
O=C(Cn1nc(-c2ccc(Cl)cc2Cl)c(-c2ccc(Cl)cc2Cl)n1)N[C@H]1c2ccccc2C[C@H]1O [Compound 127],89.4%,,IC50: 1240 ± 697 nM
CCCCOC(=O)Cn1nc(-c2ccc(Cl)cc2)c(-c2ccc(Cl)cc2)n1 [Compound 112],82.1%,,IC50: 2810 ± 301 nM
O=C(c1ccccc1)n1nc(-c2ccccc2)c(-c2ccccc2)n1 [Compound 65],11.4%,,
O=C(Cn1nc(-c2ccc(Cl)cc2)c(-c2ccc(Cl)cc2Cl)n1)NC1CCc2ccccc21 (centres unmarked) [Compound 163],76.6%,,IC50: 2070 ± 186 nM
CCCCOC(=O)Cn1nnc(-c2ccccc2)c1-c1ccc([N+](=O)[O-])cc1 [Compound 41],,14.7%,
CCCCN(CCCC)C(=O)Cn1nnc(-c2ccccc2)c1-c1ccccc1 [Compound 38],,23.8%,
CC(C)N(C(=O)Cn1nnc(-c2ccccc2)c1-c1ccccc1)C(C)C [Compound 5],,18%,
Cc1cccc(CNC(=O)Cn2nc(-c3ccc(Cl)cc3)c(-c3ccc(Cl)cc3Cl)n2)c1 [Compound 155],85%,,IC50: 473 ± 300 nM
O=C(Cn1nc(-c2ccc(Cl)cc2)c(-c2ccc(Cl)cc2Cl)n1)NCc1cccc2c1OCO2 [Compound 151],61.8%,,IC50: 5970 ± 2600 nM
O=C(Cn1nc(-c2ccc(Cl)cc2Cl)c(-c2ccc(Cl)cc2Cl)n1)NN1CCCCC1 [Compound 121],70.3%,,
CCCCOC(=O)Cn1nc(-c2ccc(Cl)cc2)c(-c2ccc(Cl)cc2Cl)n1 [Compound 118],67.4%,,
CCCCCCCCC(=O)n1nc(-c2ccc(Cl)cc2)c(-c2ccc(Cl)cc2)n1 [Compound 85],18.3%,,
Cc1ccccc1CNC(=O)Cn1nc(-c2ccc(Cl)cc2)c(-c2ccc(Cl)cc2Cl)n1 [Compound 148],94.5%,,IC50: 592 ± 302 nM
O=C(Cn1nc(-c2ccc(Cl)cc2)c(-c2ccc(Cl)cc2Cl)n1)NCc1ccc(F)c(F)c1 [Compound 166],88.3%,,
CCCCCCCCNC(=O)n1nc(-c2ccc(Cl)cc2)c(-c2ccc(Cl)cc2)n1 [Compound 102],,,CB1 Inhibition (%) (10 μM) (Table 2): 15.70%
CCCCOC(=O)Cn1nnc(-c2cccc(Cl)c2)c1-c1cccc(Cl)c1 [Compound 19],,36.7%,
CCCCOC(=O)Cn1nnc(-c2ccccc2)c1-c1ccc(Cl)cc1 [Compound 36],,35.2%,

Compound,inhibition at 10 µM (Table 2),inhibition at 10 µM (Table 1),other results
CCCCCCOC(=O)Cn1nnc(-c2ccc(Cl)cc2Cl)c1-c1ccc(Cl)cc1 [Compound 56],,47.7%,
O=C(Nc1ccc(Cl)cc1)n1nc(-c2ccc(Cl)cc2)c(-c2ccc(Cl)cc2)n1 [Compound 79],1.5%,,
CCCCOC(=O)Cn1nnc(-c2ccccc2F)c1-c1ccccc1 [Compound 48],,36.1%,
O=C(Cn1nnc(-c2ccc(Cl)c(Cl)c2)c1-c1ccc(Cl)c(Cl)c1)N1CCCCC1 [Compound 10],,20.3%,
CCCCCCNC(=O)n1nc(-c2ccc(Cl)cc2)c(-c2ccc(Cl)cc2Cl)n1 [Compound 94],10.9%,,
CCCCCCCCNC(=O)n1nc(-c2ccc(Cl)cc2)c(-c2ccc(Cl)cc2)n1 [Compound 82],26.9%,,
O=C(Cn1nc(-c2ccc(Cl)cc2)c(-c2ccc(Cl)cc2Cl)n1)NCc1ccc(Cl)c(Cl)c1 [Compound 153],87%,,IC50: 1060 ± 656 nM
CNC(=O)Cn1nnc(-c2ccccc2)c1-c1ccccc1 [Compound 9],,21.1%,
O=C(NC1CCCCC1)n1nc(-c2ccc(Cl)cc2Cl)c(-c2ccc(Cl)cc2Cl)n1 [Compound 74],,,CB1 Inhibition (%) (10 μM) (Table 2): 50.80%
CCCCCCCNC(=O)n1nc(-c2ccc(Cl)cc2Cl)c(-c2ccc(Cl)cc2Cl)n1 [Compound 89],12.9%,,
CCCCOC(=O)CNC(=O)n1nc(-c2ccc(Cl)cc2)c(-c2ccc(Cl)cc2Cl)n1 [Compound 104],11.8%,,
O=C(Cn1nc(-c2ccc(Cl)cc2)c(-c2ccc(Cl)cc2Cl)n1)NCc1ccc(Cl)cc1Cl [Compound 152],90.5%,,IC50: 711 ± 175 nM
O=C(Cn1nc(-c2ccc(Cl)cc2)c(-c2ccc(Cl)cc2Cl)n1)NCc1cccc(F)c1 [Compound 161],87.7%,,IC50: 529 ± 144 nM
Cc1cc(C)cc(NC(=O)n2nc(-c3ccc(Cl)cc3Cl)c(-c3ccc(Cl)cc3Cl)n2)c1 [Compound 76],12.7%,,
O=C(Cn1nc(-c2ccc(Cl)cc2)c(-c2ccc(Cl)cc2Cl)n1)NCc1ccc(Cl)cc1 [Compound 150],91.4%,,IC50: 704 ± 283 nM
CCCCOC(=O)Cn1nncc1-c1ccccc1 [Compound 13],,22%,
O=C(Cn1nc(-c2ccc(Cl)cc2)c(-c2ccc(Cl)cc2Cl)n1)NN1CCCCC1 [Compound 142],76.1%,,IC50: 1850 ± 1380 nM
Cc1ccc(CNC(=O)Cn2nc(-c3ccc(Cl)cc3Cl)c(-c3ccc(Cl)cc3Cl)n2)cc1 [Compound 145],95%,,IC50: 252 ± 75.1 nM
O=C(NC1CCCCC1)n1nc(-c2ccc(Cl)cc2Cl)c(-c2ccc(Cl)cc2Cl)n1 [Compound 97],,,CB1 Inhibition (%) (10 μM) (Table 2): 29.20%
CC(C)(C)C(=O)n1nc(-c2ccc(Cl)cc2Cl)c(-c2ccc(Cl)cc2Cl)n1 [Compound 68],24.2%,,
O=C(Cn1nnc(-c2ccc(Cl)cc2Cl)c1-c1ccc(Cl)cc1)N1CCCCC1 [Compound 47],,61.8%,

# From patent publication US8293773B2, “1, 2, 3-triazole derivatives as new cannabinoid-1 receptor antagonists” (National Tsing Hua University, priority 2008, dated 2012)
